Read-outs that look alike come from different tables or passages of the source.
Experiments:
[1] = tested on: HK-2 human kidney cells; assay: Cisplatin-induced apoptotic cell death of human renal proximal tubule epithelial cells (histone-associated DNA fragmentation); assay type: cell-based; details: HK-2 cells
Description: (§1) The HK-2 human kidney cells were cultured in Keratinocyte-Serum Free Medium supplemented with recombinant epidermal growth factor and bovine pituitary extract. The dose-dependent inhibitory effect of PACAP38 on apoptotic cell death was assessed by the quantitative determination of cytoplasmic histone-associated DNA-fragmentation (mono- and oligonucleosomes) after exposure to cisplatin for 24 hours. Each value represents the mean plus/minus the standard error of four determinations in three replicate experiments. **p<0.01 compared to the cisplatin-treated (control) cells.
as §1, with “deviation” for “error”, “different” for “replicate”, “**p<0.01 and *p<0.05” for “**p<0.01”

[2] = tested on: HK-2 human kidney cells; assay: Cell-based adhesion assay: binding of cisplatin-treated renal cells to extracellular matrix components; details: HK-2 cells, 50 μM cisplatin, FIG. 5
Description: The wells of a 96-well plate were coated with […] fibronectin, collagen I or collagen IV. […] PACAP38 partially reversed the decrease in binding to fibronectin and collagen IV in the cells exposed to cisplatin. Each value represents the mean plus/minus the standard error of four determinations. **p<0.01 compared to the corresponding cisplatin-treated (control) cells.

[3] = tested on: L-132 human lung cells; assay: Bleomycin-induced apoptotic cell death of human pulmonary epithelial cells; assay type: cell-based; details: L-132 cells, peptide added to the medium, FIG. 12
Description: The L-132 human lung cells were cultured in Eagle's Minimum Essential Medium supplemented with 10% fetal bovine serum. […] Each value represents the mean plus/minus the standard deviation of four determinations in three replicate experiments. **p<0.01 and *p<0.05 compared to the bleomycin-treated (control) cells.
At the highest dose tested (10^−6 M), all three peptides reduced the apoptotic cell death of these epithelial cells by more than 60%. […] Therefore, pre- and/or post-treatment of subjects undergoing bleomycin-based cancer chemotherapy with therapeutic doses of PACAP38 and/or PACAP analogs should result in a higher maximal tolerable dose of bleomycin, and an increased frequency of partial clinical responses and/or an increased number of complete remissions.

[4] = tested on: PC-12 rat pheochromocytoma cells; assay: Cisplatin-induced apoptotic cell death of pheochromocytoma cells; assay type: cell-based; details: PC-12 cells
Description: The PC-12 rat pheochromocytoma cells were cultured in F-12K medium supplemented with 15% horse serum and 2.5% fetal bovine serum. The dose-dependent inhibitory effects of PACAP38 and the PACAP38 analogs on apoptotic cell death were assessed by the quantitative determination of cytoplasmic histone-associated DNA-fragmentation (mono- and oligonucleosomes) after exposure to cisplatin for 24 hours. Each value represents the mean plus/minus the standard error of four determinations. **p<0.01 and *p<0.05 compared to the cisplatin-treated (control) cells.

[5] = tested on: MCF-7 human breast cancer cells; assay: Doxorubicin-induced apoptotic cell death of breast cancer cells; assay type: cell-based; details: MCF-7 cells, doxorubicin 48 hours, FIG. 14
Description: The MCF-7 human breast cancer cells were cultured in Eagle's Minimum Essential Medium supplemented with 10% non-inactivated fetal bovine serum and 0.05 mM 2-mercaptoethanol. The effects of PACAP38 and N-acetyl[Ala^16,17,D-Lys^38]PACAP38 on apoptotic cell death were assessed by the quantitative determination of cytoplasmic histone-associated DNA-fragmentation (mono- and oligonucleosomes) after exposure to doxorubicin for 48 hours. Each value represents the mean plus/minus the standard deviation of three determinations. **p<0.01 compared to the doxorubicin-treated (control) cells.
At the highest dose tested (10^−6 M), both peptides reduced the apoptotic cell death of these breast cancer cells by more than 50%.

[6] = tested on: light-chain immunoglobulin-secreting human myeloma cells; assay: Doxorubicin-induced apoptotic cell death of myeloma cells; assay type: cell-based
Description: (§2) The light-chain immunoglobulin-secreting human myeloma cells were cultured in RPMI 1640 medium supplemented with 10% non-inactivated fetal bovine serum and 0.05 mM 2-mercaptoethanol. The effects of PACAP38, and [Ala^16,17,D-Lys^38]PACAP38 on apoptotic cell death was assessed by the quantitative determination of cytoplasmic histone-associated DNA-fragmentation (mono- and oligonucleosomes) after exposure to doxorubicin for 48 hours. Each value represents the mean plus/minus the standard deviation of three determinations. **p<0.01 and *p<0.05 compared to the doxorubicin-treated (control) cells.
At the lowest dose tested (10^−8 M), both peptides reduced the doxorubicin-induced apoptotic cell death of these malignant plasma cells.

[7] = tested on: light-chain immunoglobulin-secreting human myeloma cells; assay: Thalidomide-induced apoptotic cell death of myeloma cells; assay type: cell-based
Description: as §2, with “PACAP38” for “PACAP38, and [Ala^16,17,D-Lys^38]PACAP38”, “thalidomide” for “doxorubicin”, “four” for “three”, “thalidomide-treated” for “doxorubicin-treated”

[8] = tested on: Middle cerebral artery occlusion (MCAO) in the rat; details: cited from earlier work; for reduction of the infarct volume: 48 hours after start

PACAP38
reduction in cisplatin-induced apoptotic cell death ([1]; cisplatin 24 hours, peptide added to the medium, FIG. 3): significant dose-dependent reduction | relative effectiveness as protectants against cisplatin-induced apoptotic cell death ([1]; comparable concentrations, FIG. 4): similarly effective | prevention of apoptotic cell death caused by cisplatin ([1]; highest dose tested): almost completely prevented | reversal of inhibitory effect of cisplatin on binding to fibronectin-based or collagen IV-based matrix [2]: significantly reversed | reduction in bleomycin-induced apoptotic cell death [3]: significant dose-dependent reduction | reduction in cisplatin-induced apoptotic cell death ([4]; cisplatin 24 hours, FIG. 13): dose-dependent reduction | reduction of cisplatin-induced apoptotic cell death ([4]; highest dose tested (10^−6 M)): significantly reduced | reduction in doxorubicin-induced apoptotic cell death [5]: dose-dependent reduction | effect on doxorubicin-induced apoptotic cell death (dose-response) ([6]; doxorubicin 48 hours, FIG. 16): biphasic dose-response effect | effect on doxorubicin-induced apoptotic cell death ([6]; highest dose tested (10^−6 M)): significantly enhanced | effect on doxorubicin-induced apoptotic cell death ([6]; lowest dose tested (10^−8 M)): reduced | lowest dose with significant enhancement of thalidomide-induced apoptotic cell death [7]: 10^−8 M | effect on thalidomide-induced apoptotic cell death ([7]; thalidomide 48 hours, FIG. 19): dose-dependent enhancement | reduction of the infarct volume ([8]; 160 pmol/hr i.v. infusion beginning 4 hours after start of MCAO): approximately 51% | reduction of the infarct volume ([8]; 160 pmol/hr i.v. infusion beginning 8 hours after start of MCAO): ~22% | reduction of the infarct volume ([8]; 160 pmol/hr i.v. infusion beginning 12 hours after start of MCAO): ~12% | effect of continuous intravenous infusion on plasma glucose levels, blood gases, blood pressure ([8]; 160 pmol/hr i.v.): did not appear to alter plasma glucose levels, blood gases or blood pressure

— US20110268789A1, “USE OF PITUITARY ADENYLATE CYCLASE-ACTIVATING POLYPEPTIDE (PACAP) AND PACAP ANALOGS AS ADJUNCTIVE TREATMENTS WITH ANTICANCER AGENTS” (priority 2008, published 2011)
